# Test results published in patent US11447505B1, “Pyrrolo[2,3-b]pyridine compounds and their use in the treatment of cancer” (priority 2017, dated 2022).
# Entries after “also recorded” stand apart in the source; their conditions may differ.
# Key:
# [1] = target: T1, ROCK1 (Homo sapiens (Human), UniProt Q13464); assay: biochemical
# Protocol: MRCKα, MRCKβ, ROCK1 and ROCK2 assays were performed using an IMAP fluorescence polarization assay format (Molecular Devices Inc.). […] Typically, dose response analyses were performed over concentration ranges from 0.005-100 μM. […] After 30 min incubation to allow binding reagent to bind phosphorylated peptide, fluorescence polarization was measured on a Tecan Saphire^2 plate reader at excitation (470 nm) and emission (530 nm) wavelengths.
# [2] = test system: G7 cells; assay: Cell viability assay; type: cell-based, human
# Excerpt: (§4) FIG. 4. […] N.S.=not significant. […] Cells were imaged using an Operetta high-throughput imaging platform. Red: actin, blue: DAPI, Scale bar: 100 μm. Automated image analysis was undertaken to quantify changes in neurite morphology. Data from >1000 cells.
# [3] = target: T2, MRCKβ (Homo sapiens (Human), UniProt Q9Y5S2); assay: MRCKβ cellular assay (pMLC T18/S19 immunoblot, MDA-MB-231 cells with doxycycline inducible kinase domain); type: cell-based; conditions: MDA-MB-231 cells, doxycycline inducible kinase domain, 60 minutes, pMLC (T18/S19); read-out: Cellular assay - MRCK-b inhibition MEAN
# Protocol: (§1) MRCKβ, ROCK1 and ROCK2 Cellular Assays
# (§2) MDA-MB-231 cells expressing doxycycline inducible ROCK1, ROCK2 or MRCKβ kinase domains were plated at 1.1×10^5 cells per well of a 12 well plate. After 24 hours, cells were treated with 1 μg/ml doxycycline for 18 hours to induce kinase domain expression and then tested over a suitable concentration range with compounds of the invention for 60 minutes. Cells were then washed with PBS and lysed with Tris-SDS lysis Buffer (50 mM Tris-HCl pH7.4, 0.5% (v/v) SDS, 1×PhosStop Inhibitors (04 906 837 001; Roche) and 1×Complete Protease Inhibitors (04 693 124 001; Roche)). Whole cell lysates were clarified by passing through QIAshredder spin columns, separated by SDS-PAGE, and quantitative immunoblotting performed using a LI-COR Odyssey IR scanner to determine pMLC (T18/S19) and α-Tubulin levels.
# [4] = Skin and blood compound concentrations after topical application to FVB mice
# Protocol: (§5) Mice were culled 2 hours after final treatment. […] Mice were culled 2 hours, 4 hours, 8 hours or 24 hours after final treatment.
# (§6) For DMBA/TPA experiments, 40 FVB mice were treated topically with 25 μg DMBA in acetone on day 1. From day 5, 4.7 μg TPA in acetone was applied 3 times weekly. […] Experimenters were fully blinded to the identity of treatment groups. Mice weights and general conditions were monitored at least 2 times per week, tumor sizes and numbers were recorded weekly. Mice were culled when papillomas reached 12 mm in diameter. Analysis of tumor volume and papilloma numbers were performed blinded to the identity of treatment groups.
# [5] = Plasma protein binding; type: in vitro ADME
# [6] = target: MRCKα (Homo sapiens (Human), UniProt Q5VT25); assay: MRCKα kinase assay (IMAP fluorescence polarization); type: biochemical; conditions: 1 μM ATP; read-out: MRCK-a Average Ki
# Excerpt: (§3) MRCKα, MRCKβ, ROCK1 and ROCK2 Kinase Assays
# [7] = test system: G7 intracranial tumours; assay: Survival of mice bearing G7 intracranial GBM tumours; type: in vivo, mouse
# Protocol: Female CD1 nude mice were orthotopically injected with 1×10^5 G7 or U87MG cells into the subventricular zone as previously described (16, 17). Tumours were allowed to establish […] magnetic resonance imaging (MRI) to confirm presence of tumour. Radiation treatments were conducted using an XSrtahl Small Animal Radiation Research Platform (SARRP). 5 mg/kg BDP-9066 or vehicle (20% propylene glycol/80% PBS) was given subcutaneously twice daily or at stated time before cull for PK analysis. Tumours were sub-dissected and fresh frozen specimens sent for PK analysis (Vertex, UK). Formalin fixed, paraffin embedded sections were stained for Ki67, HLA or phosphoMYPT1 then scanned using a Hamamatsu Nanozoomer Slide scanning machine with Leica SlidePath Slide imaging software. Algorithms were optimised for each stain individually and automated, quantitative analysis undertaken. The defining of contralateral regions was performed blinded.
# FIG. 6. […] (A) Outline of experiment to measure in vivo survival to BDP-9066 treatment. G7 intracranial tumours were allowed to establish for 10 weeks before initiation of treatment. Mice in the RT cohorts received 6×2 Gy whole brain RT over the course of two weeks. Only mice that were culled after the first 3 fractions of RT were included in the analysis to allow for any treatment benefit to take effect. The study was randomised, blinded and the mice stratified across the cohorts based on starting tumour size as assessed by T2 MRI. (B) Kaplan-Meier plot showing survival data. N.S.=not significant, *<p 0.05, **p<0.005. Statistical analysis: Log-rank (Mantel-Cox) test.
# Pharmacological inhibition of MRCK when combined with radiotherapy confers a significant survival benefit to intracranial GBM tumour bearing mice. G7 intracranial tumours were established in four cohorts of mice: vehicle, BDP-9066, RT+vehicle and RT+BDP-9066 (FIG. 6A) and the 4 week treatment schedule outlined in FIG. 6A was commenced at 10 weeks post tumour cell injection. The experiment was terminated at 104 days after a final T2 MRI on the remaining mice.
# [8] = PK analysis in mice bearing intracranial U87MG or G7 tumours, subcutaneous dosing; type: in vivo, mouse
# Protocol: (§7) Female CD1 nude mice were orthotopically injected with 1×10^5 G7 or U87MG cells into the subventricular zone as previously described (16, 17). Tumours were allowed to establish for before magnetic resonance imaging (MRI) to confirm presence of tumour. Radiation treatments were conducted using an XSrtahl Small Animal Radiation Research Platform (SARRP). […] Tumours were sub-dissected and fresh frozen specimens sent for PK analysis (Vertex, UK). Formalin fixed, paraffin embedded sections were stained for Ki67, HLA or phosphoMYPT1 then scanned using a Hamamatsu Nanozoomer Slide scanning machine with Leica SlidePath Slide imaging software. Algorithms were optimised for each stain individually and automated, quantitative analysis undertaken. The defining of contralateral regions was performed blinded.
# (§8) Tumours were sub-dissected from normal brain tissue and analysed by mass spectrometry to determine total compound levels (‘Total’). […] G7 intracranial tumours were allowed to establish for 12 weeks before initiation of treatment. The study was randomised and blinded. […] (D) Brain sections were stained by IHC for pMYPT1 levels (i). Levels of nuclear and cytoplasmic pMYPT1 were quantified by automated analysis using SlidePath. Statistical analysis: two tailed, unpaired t test. *p<0.05.
# [9] = target: T2, MRCKβ; assay: MRCKβ kinase assay (IMAP fluorescence polarization); type: biochemical; conditions: 1 μM ATP; read-out: MRCK-B Average Ki
# Excerpt: as §3
# [10] = test system: E2 and G7 cells; assay: Sub confluent migration assay of irradiated GBM cells (timelapse, single cell tracking); type: cell-based, human; conditions: 2 Gy
# Protocol: (§9) Cells were irradiated using an Xstrahl RX225 radiation cabinet (195 kV X-rays, dose rate 1.39 Gy/minute). For sub confluent migration assays, 2×10^5 cells per well were plated at in 6 well dishes and migration imaged by timelapse microscopy capturing images every 15 mins. Migration velocity was calculated using single cell tracking via ImageJ analysis. For ex vivo migration assays, cell were seeded onto fresh 1 mm coronal brain slices obtained from 6-8 week old C57BL/6 mice in culture medium (described above) and allowed to establish overnight with incubation at 37° C., 5% CO2. Brain slices were then inverted onto Lumox 35 mm dishes (8 μm, Sarstedt) and secured with Nuclepore Track-Etch membrane (Whatman) sealed with Matrigel. Migration was captured via confocal timelapse microscopy with images taken every 15 mins. Migration velocity was calculated using single cell tracking via ImageJ analysis.
# (§10) (B) Treated cells were exposed to 0 Gy or 2 Gy and imaged in a sub-confluent migration assay. Cell speed was measured by single cell tracking. […] Data from 3 biological replicates. (D) Fluorescently labelled E2 cells were exposed to 0 Gy or 2 Gy radiation and seeded onto fresh murine brain slices. […] Data from 3 biological replicates. […] Baseline value of 34% was calculated from the average of 10 non-motile, non-irradiated cells. […]
# [11] = test system: DMBA/TPA skin papillomas; assay: DMBA/TPA mouse model of squamous cell carcinoma, topical treatment; type: in vivo; conditions: topical 25 μg 5 times per week for 14 weeks, vs DMSO
# Protocol: as §6
# [12] = target: kinase targets listed in tables 3 and 4 (Homo sapiens, UniProt Q9Y5S2); assay: biochemical
# [13] = target: kinase targets listed in tables 3 and 4 (Homo sapiens, UniProt Q13464); assay: biochemical
# [14] = target: kinase targets listed in tables 3 and 4 (Homo sapiens, UniProt Q9BXA7); assay: biochemical
# [15] = test system: pMLC2; assay: pMLC2 immunofluorescence, Operetta high-throughput imaging; type: cell-based, human
# Excerpt: Cells were imaged using an Operetta high-throughput imaging platform. Green: pMLC2; yellow: actin; red: whole cell dye; blue: DAPI; Scale bar: 100 μm. (ii) Automated image analysis was undertaken to compare pMLC2 levels in control and irradiated cells. Data are derived from two biological repeats, each analysing >400 cells per condition.
# Cells were imaged using an Operetta high-throughput imaging platform. Automated image analysis was used to compare pMLC2 levels. Data from two biological repeats with >400 cells per condition per biological replicate. Data plotted as a percentage of vehicle. […] Cells were imaged using an Operetta high-throughput imaging platform.
# [16] = test system: pMYPT1; assay: pMYPT1 IHC of brain sections from mice bearing G7 intracranial tumours; type: in vivo, mouse; conditions: 3×2 Gy whole brain RT + 5 mg/kg twice daily for 10 days; listed as BDP-9066
# Protocol: as §7, §8
# [17] = target: T1, ROCK1; assay: ROCK1 cellular assay (pMLC T18/S19 immunoblot, MDA-MB-231 cells with doxycycline inducible kinase domain); type: cell-based; conditions: MDA-MB-231 cells, doxycycline inducible kinase domain, 60 minutes, pMLC (T18/S19); read-out: Cellular assay - ROCK1 inhibition MEAN
# Protocol: as §1, §2
# [18] = test system: G7 and E2 cells; assay: Clonogenic survival assay with irradiation; type: cell-based, human; conditions: 100 nM, G7 or E2 cells
# Excerpt: as §4
# [19] = test system: E2 cells; assay: Ex vivo migration assay of irradiated GBM cells on murine brain slices; type: cell-based, human; conditions: 100 nM, 2 Gy
# Protocol: as §9, §10
# [20] = test system: MRCKα pS1003; assay: MRCKα pS1003 immunohistochemical staining of topically treated mouse skin and papillomas; conditions: vs DMSO
# Protocol: as §5, §6
# [21] = target: ROCK2 (Homo sapiens (Human), UniProt O75116); assay: ROCK2 kinase assay (IMAP fluorescence polarization); type: biochemical; conditions: 1 μM ATP; read-out: ROCK2 Average Ki
# Protocol: MRCKα, MRCKβ, ROCK1 and ROCK2 assays were performed using an IMAP fluorescence polarization assay format (Molecular Devices Inc.). 8-12 nM of each kinase (Life Technologies) was incubated for 60 min at room temperature with 100 nM FAM-S6-ribosomal protein derived peptide (synthesized by Alta Biosciences, University of Birmingham UK) in the presence of 1 μM ATP and 0.5 mM MgCl2 in 20 mM Tris buffer (pH 7.4) containing 0.01% Tween-20 and 1 mM DTT (MRCKα and β); or 1 μM ATP, 10 mM MgCl2 in 20 mM Tris buffer (pH 7.5) containing 0.25 mM EGTA 0.01% Triton X-100 and 1 mM DTT (ROCK1 and ROCK2). Typically, dose response analyses were performed over concentration ranges from 0.005-100 μM. Reactions were stopped by adding 2 assay volumes of 0.25% (v/v) IMAP binding reagent in 1×IMAP binding buffer A (Molecular Devices). After 30 min incubation to allow binding reagent to bind phosphorylated peptide, fluorescence polarization was measured on a Tecan Saphire^2 plate reader at excitation (470 nm) and emission (530 nm) wavelengths.
# [22] = test system: E2 cells; assay: Neurite morphology, automated image analysis; type: cell-based, human; conditions: cells treated with irradiation
# Excerpt: as §4
# [23] = FVB, mouse, skin, topical, 25 μg
# kinase targets listed in tables 3 and 4 (Homo sapiens, UniProt Q13464), sequence (Q13464 2-1354 limits assumed): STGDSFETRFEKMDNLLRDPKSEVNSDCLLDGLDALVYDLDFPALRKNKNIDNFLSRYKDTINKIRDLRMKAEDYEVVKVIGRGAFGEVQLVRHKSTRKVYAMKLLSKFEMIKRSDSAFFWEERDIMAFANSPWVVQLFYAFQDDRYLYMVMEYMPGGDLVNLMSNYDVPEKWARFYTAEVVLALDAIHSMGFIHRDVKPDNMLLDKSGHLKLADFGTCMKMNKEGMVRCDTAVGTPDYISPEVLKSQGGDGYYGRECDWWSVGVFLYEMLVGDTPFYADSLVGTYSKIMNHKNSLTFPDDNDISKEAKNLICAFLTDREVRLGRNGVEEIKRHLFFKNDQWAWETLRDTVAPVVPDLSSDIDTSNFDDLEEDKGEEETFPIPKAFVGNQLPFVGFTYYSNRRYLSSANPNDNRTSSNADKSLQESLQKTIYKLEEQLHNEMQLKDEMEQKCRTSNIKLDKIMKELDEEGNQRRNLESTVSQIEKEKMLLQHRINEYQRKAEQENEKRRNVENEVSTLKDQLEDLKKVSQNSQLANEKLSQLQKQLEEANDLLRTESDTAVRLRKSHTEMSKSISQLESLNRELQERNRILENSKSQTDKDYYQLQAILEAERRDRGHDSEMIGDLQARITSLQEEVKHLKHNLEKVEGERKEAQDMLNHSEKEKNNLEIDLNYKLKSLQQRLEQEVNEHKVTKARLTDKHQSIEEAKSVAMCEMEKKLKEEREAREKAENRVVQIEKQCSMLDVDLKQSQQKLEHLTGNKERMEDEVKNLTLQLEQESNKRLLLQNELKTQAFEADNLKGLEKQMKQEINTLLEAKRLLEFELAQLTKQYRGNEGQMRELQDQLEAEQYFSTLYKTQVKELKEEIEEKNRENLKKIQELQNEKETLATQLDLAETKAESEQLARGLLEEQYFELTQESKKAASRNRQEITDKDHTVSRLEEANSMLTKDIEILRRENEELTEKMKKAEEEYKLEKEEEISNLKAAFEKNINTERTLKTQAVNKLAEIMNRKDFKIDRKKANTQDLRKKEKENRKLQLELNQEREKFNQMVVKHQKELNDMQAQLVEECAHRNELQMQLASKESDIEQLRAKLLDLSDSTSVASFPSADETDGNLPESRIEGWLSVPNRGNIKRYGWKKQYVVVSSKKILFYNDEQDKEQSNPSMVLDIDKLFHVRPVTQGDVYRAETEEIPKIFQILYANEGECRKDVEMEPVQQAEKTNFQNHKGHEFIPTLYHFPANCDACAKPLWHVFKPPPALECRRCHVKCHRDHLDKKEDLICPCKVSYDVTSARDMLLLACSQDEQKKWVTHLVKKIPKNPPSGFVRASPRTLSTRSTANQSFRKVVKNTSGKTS
# T1 sequence (Q13464 2-1354 limits assumed): as above
# kinase targets listed in tables 3 and 4 (Homo sapiens, UniProt Q9BXA7), sequence (Q9BXA7 whole entry, looked up): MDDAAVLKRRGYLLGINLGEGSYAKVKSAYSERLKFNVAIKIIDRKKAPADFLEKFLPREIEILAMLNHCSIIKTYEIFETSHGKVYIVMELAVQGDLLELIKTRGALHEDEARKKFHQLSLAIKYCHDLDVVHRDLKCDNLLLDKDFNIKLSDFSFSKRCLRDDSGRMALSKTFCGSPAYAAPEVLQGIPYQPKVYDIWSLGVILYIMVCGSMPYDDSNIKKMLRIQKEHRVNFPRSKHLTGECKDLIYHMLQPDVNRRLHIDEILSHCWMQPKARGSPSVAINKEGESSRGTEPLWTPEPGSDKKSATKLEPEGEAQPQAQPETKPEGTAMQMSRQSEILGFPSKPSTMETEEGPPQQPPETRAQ
# kinase targets listed in tables 3 and 4 (Homo sapiens, UniProt Q9Y5S2), sequence (Q9Y5S2 whole entry, looked up): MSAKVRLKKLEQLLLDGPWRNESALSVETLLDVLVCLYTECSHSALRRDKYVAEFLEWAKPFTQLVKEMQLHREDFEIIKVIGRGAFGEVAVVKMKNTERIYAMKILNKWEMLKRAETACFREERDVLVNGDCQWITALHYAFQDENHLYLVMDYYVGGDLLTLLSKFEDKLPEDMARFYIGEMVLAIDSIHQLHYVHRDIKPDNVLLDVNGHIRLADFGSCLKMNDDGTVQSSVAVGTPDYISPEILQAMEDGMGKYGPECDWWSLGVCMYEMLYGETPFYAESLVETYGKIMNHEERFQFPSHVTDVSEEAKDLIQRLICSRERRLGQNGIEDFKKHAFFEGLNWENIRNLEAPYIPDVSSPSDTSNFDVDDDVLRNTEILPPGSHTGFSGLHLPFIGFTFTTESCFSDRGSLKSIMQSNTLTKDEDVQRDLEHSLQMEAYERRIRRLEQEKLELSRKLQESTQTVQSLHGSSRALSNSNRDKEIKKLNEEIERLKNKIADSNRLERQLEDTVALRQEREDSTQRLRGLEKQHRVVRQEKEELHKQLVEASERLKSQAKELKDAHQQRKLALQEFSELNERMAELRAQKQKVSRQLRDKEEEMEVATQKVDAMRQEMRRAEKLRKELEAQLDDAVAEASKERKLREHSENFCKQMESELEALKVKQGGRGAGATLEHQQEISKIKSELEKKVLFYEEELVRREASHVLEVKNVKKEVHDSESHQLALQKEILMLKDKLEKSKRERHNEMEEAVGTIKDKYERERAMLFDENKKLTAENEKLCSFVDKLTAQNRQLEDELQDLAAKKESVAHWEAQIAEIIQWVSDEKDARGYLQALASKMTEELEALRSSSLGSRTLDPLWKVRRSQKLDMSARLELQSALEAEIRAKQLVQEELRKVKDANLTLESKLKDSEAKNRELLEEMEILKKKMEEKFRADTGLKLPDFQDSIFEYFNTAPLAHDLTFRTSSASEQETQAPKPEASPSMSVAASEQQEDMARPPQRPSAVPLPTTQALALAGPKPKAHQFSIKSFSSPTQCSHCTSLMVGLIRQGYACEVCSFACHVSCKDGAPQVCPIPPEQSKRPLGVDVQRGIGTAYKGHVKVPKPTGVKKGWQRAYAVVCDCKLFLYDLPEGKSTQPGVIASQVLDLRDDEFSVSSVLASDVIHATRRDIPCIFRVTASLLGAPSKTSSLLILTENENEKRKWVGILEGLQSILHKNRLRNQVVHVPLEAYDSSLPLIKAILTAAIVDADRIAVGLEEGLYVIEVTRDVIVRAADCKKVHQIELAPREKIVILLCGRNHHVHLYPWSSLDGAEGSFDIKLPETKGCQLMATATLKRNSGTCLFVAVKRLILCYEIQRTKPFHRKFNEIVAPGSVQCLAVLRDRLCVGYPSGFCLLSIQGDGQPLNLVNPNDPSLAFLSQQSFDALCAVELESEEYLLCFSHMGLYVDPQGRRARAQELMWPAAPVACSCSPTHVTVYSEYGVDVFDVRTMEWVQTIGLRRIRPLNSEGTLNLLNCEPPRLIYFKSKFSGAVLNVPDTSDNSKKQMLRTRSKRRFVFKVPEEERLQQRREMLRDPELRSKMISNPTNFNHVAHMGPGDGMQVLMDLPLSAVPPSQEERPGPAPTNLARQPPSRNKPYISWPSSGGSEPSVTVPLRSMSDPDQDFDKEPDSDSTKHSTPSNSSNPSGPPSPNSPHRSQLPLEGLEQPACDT
# ROCK2, sequence (O75116 whole entry): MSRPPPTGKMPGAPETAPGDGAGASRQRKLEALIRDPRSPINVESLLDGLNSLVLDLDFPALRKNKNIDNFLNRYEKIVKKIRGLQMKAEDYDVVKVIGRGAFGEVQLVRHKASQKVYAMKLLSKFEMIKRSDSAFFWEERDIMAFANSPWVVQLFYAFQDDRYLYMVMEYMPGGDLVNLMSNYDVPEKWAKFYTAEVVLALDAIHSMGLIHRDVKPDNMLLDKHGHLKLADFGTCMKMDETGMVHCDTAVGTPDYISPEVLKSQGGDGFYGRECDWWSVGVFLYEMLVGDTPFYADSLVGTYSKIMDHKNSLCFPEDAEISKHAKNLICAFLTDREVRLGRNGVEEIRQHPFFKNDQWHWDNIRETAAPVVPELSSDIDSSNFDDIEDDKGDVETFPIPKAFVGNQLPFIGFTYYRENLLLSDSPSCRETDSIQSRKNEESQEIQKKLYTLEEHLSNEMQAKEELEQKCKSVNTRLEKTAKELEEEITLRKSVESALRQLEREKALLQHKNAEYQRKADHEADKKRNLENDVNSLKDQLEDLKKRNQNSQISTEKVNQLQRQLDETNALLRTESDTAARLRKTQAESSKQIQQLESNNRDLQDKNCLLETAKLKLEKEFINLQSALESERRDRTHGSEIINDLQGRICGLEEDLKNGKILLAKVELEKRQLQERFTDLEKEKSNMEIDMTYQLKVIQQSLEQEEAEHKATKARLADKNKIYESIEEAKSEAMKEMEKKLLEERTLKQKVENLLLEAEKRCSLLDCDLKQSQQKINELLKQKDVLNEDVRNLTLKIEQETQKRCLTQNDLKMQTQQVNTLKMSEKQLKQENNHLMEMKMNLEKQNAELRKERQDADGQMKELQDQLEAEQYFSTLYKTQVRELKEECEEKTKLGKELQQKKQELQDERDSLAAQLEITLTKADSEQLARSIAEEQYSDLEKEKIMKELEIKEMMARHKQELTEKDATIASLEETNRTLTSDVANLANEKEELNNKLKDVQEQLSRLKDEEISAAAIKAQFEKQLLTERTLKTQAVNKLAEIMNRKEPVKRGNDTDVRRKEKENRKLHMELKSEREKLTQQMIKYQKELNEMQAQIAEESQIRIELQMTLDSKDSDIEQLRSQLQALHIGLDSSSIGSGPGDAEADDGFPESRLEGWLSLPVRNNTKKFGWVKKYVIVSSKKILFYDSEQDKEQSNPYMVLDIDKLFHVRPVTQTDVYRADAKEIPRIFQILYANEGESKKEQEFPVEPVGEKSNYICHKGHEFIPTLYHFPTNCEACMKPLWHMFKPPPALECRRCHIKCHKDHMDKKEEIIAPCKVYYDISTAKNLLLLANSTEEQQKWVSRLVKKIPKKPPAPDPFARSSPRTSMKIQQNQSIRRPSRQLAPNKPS
smiles,measurement,setting,value
"c1cc(-c2c[nH]c3nccc(N4CCC[C@@]5(CCCCN5)C4)c23)ncn1 [Example E117, (6S)-8-(3-pyrimidin-4-yl-1H-pyrrolo[2,3-b]pyridin-4-yl)-1,8-diazaspiro[5.5]undecane]",Ki,[1],18.4 nM
same,cell viability at higher concentrations,"[2]; higher concentrations, likely off target toxicity",loss of cell viability
same,cell viability,"[2]; sub-micromolar levels / anti-invasive concentrations, G7 cells, listed as BDP-9066",does not affect cell survival; also recorded: No effect
same,IC50,[3],28.3 nM
same,compound in blood at experimental endpoint,"[4]; DMBA/TPA FVB mice, topical 25 μg 5 times per week for 14 weeks",no detectable levels; also recorded: undetectable
same,concentration at 2 h,"[4]; FVB, mouse, blood, topical, 25 μg",0.04 µM
same,concentration at 14 weeks,[4]; [23],> 1 µM
same,concentration at 2 h,[4]; [23],26 µM
same,concentration at 24 h,[4]; [23],> 16 µM
same,clearance in the blood,[4]; by deactivation and/or metabolism,rapid clearance
same,drug levels in the skin compared with blood,"[4]; topical 4×25 μg over 2 days, dorsal skin",significantly higher than in blood
same,mean concentration in the skin,"[4]; topical administration, DMBA/TPA experiment",greater than 1 micromolar
same,level in blood 24 hours after final dosing,"[4]; topical single 25 μg or 8×25 μg (4 days on, 2 off, 4 on)",undetectable
same,compound accumulation on repeated dosing,"[4]; topical, repeated 25 μg vs single 10 μg",less than additive
same,PPB free value,[5],72.7%
same,fraction unbound,[5]; plasma,0.727
same,Ki,[6],0.0136 nM
same,"survival, combined with RT vs untreated cohort","[7]; 6×2 Gy whole brain RT, p=0.0007, listed as BDP-9066",significant survival advantage; also recorded: highly significant increase in survival
same,"survival, combined with RT vs radiation alone","[7]; 6×2 Gy whole brain RT, p=0.0459",significantly above
same,"survival, compound alone",[7]; vs untreated cohort,no significant survival benefit
same,penetration of intracranial tumours,"[8]; 5 mg/Kg subcutaneous, 30 mins prior to cull, U87MG and G7 tumours, listed as BDP-9066",penetrates intracranial GBM xenografts; also recorded: penetrated intracranial tumours
same,presence in blood at the time of culling,[8]; 5 mg/kg subcutaneous twice daily for 10 days,micromolar concentrations
same,bioavailability,"[8]; PK profile, data not shown",good bioavailability
same,clearance,"[8]; PK profile, data not shown",rapid clearance
same,"exposure in the brain, contralateral hemisphere","[8]; sub-cutaneous dosing, absence of significant tumour burden",very low exposure
same,Ki,[9],0.0233 nM
same,radiation driven sub confluent migration,"[10]; 100 nM, G7 and E2 cells",fully oppose
same,cell speed of irradiated GBM cells,"[10]; increasing concentrations, E2 and G7 cells",robust dose response
same,average papilloma volume per mouse,[11],significantly reduced
same,skin papilloma appearance at study end,[11],appeared visually smaller
same,total papilloma numbers per mouse,[11],not different
same,total tumor volume per mouse,[11],significantly reduced
same,IC50,[12],8.3 nM
same,Ki,[12],1.38 nM
same,IC50,[13],141 nM
same,Ki,[13],54 nM
same,IC50,[14],287 nM
same,Ki,[14],136 nM
same,IC50,"[15]; Homo sapiens, light or radiation study, irradiated G7 and E2 cells",56 nM
same,response in biomarker assay (pMLC2),[15]; cells treated with irradiation,robust dose dependent response
same,radiation driven MYPT1 phosphorylation,[16],inhibits; also recorded: opposes
same,IC50,[17],10600 nM
same,radiation sensitivity measured by clonogenic survival,[18],no impact
same,radiation driven ex vivo brain slice invasion,[19],fully oppose
same,MRCKα pS1003 cytoplasmic histoscores in papillomas,"[20]; DMBA/TPA mice, topical 25 μg",reduced histoscores
same,MRCKα pS1003 cytoplasmic histoscores in the treated skin area,"[20]; DMBA/TPA mice, topical 25 μg",reduced histoscores
same,MRCKα pS1003 immunohistochemistry staining,"[20]; DMBA/TPA treated skin, topical 25 μg",significant decreases
same,epidermal MRCKα pS1003 positive staining,"[20]; topical 4×25 μg over 2 days, FVB mouse skin",significant reduction; also recorded: significantly reduced
same,Ki,[21],5.38 nM
same,response in morphological assay (neurites),[22],robust dose dependent response
